Where two headings read alike, the source gives them in different places.

The values below come from patent US20260284066A1, “TYK2 INHIBITORS AND COMPOSITIONS AND METHODS THEREOF” (LYNK PHARMACEUTICALS CO. LTD., priority 2023, published 2026).

One data set addresses T1, JAK1-JH2 domain (Homo sapiens, UniProt P23458).
T1 construct: JAK1-JH2 domain or TYK2-JH2 domain enzyme
The data set is described as follows: Binding activity test for JAK1 JH2 domain (Tb-antibody/tracer FRET). As for the experimental part:
Binding Activity test for JH2 domain of JAK and TYK2
75 nL DMSO for high control and low control.
For low control, add 5 μL/well assay buffer. […] After enzyme system prepared, add 5 μL of Tb-antibody solution into each wells of assay plate. […] After Tb-antibody added, also add 5 μL of tracer into the assay plate. […] Incubate for 60 mins at 25° C. firstly and then continue to incubate the plate at 4° C. overnight. Read by envision in FRET mode. The Luminescence value was recorded by a multi-label reader Envision (PerkinElmer). Inhibition Rate was calculated relative to vehicle (DMSO) treated control wells using following formula:
wherein • RLU_compound=the relative light unit of cells treated with test compounds • RLU_low control=the relative light unit of medium with DMSO only • RLU_high control=the relative light unit of cells treated with DMSO only

The target in a further data set is T2, TYK2-JH2 domain (Homo sapiens, UniProt P29597).
T2 construct: JAK1-JH2 domain or TYK2-JH2 domain enzyme
The data set is described as follows: Binding activity test for TYK2 JH2 domain (Tb-antibody/tracer FRET). The settings on record: for JAK1/TYK2 selectivity: ratio of JAK1 JH2 to TYK2 JH2 binding IC50.

Data set [1] can be described thus: Microsomal metabolic stability assay. The data set is classed as in vitro ADME, human. The settings on record: human, liver microsomes, pH 7.4, human liver microsomes 0.5 mg/mL; for microsomal CLint at 1 µM: read-out: Human LM Clint; for half-life at 1 µM: read-out: Human LM T½. As to the method:
Microsomal Metabolic Stability Assay
Microsomes were pre-incubated with test compound or control compounds for 5 min at 37° C. in 100 mM potassium phosphate buffer, pH 7.4, 1.0 mM EDTA. The reaction was initiated by addition of 15 μL of the NADPH regenerating system to 30 μL of each incubation mixture per time point. The final incubation condition was composed of 0.5 mg/mL microsomal protein, 1 μM test article/positive control, 2 mM NADPH. The 0-minute samples were prepared by addition of a 30 μL aliquot of each incubation mixture to 135 μL quench reagent to precipitate proteins. And then a 15 μL aliquot of the NADPH regenerating system was added. At 5, 15, 30 and 45 minutes, the reaction will be stopped by the addition of cold acetonitrile solution containing internal standard. The samples taken at all time points were centrifuged at 5000×g for 15 minutes. 50 μL of supernatant are taken into 96-well assay plates pre-added with 50 μL ultrapure water, and then analyzed by LC/MS/MS.
Concentrations of test articles, control compounds in the samples were determined by using LC/MS/MS method. Plotting of the chromatograms and peak area integrations are carried out by Analyst (AB Sciex).
In the determination of the in vitro elimination constant (ke) of the control compounds, the analyte/internal standard peak area ratios will be converted to percentage remaining (% Remaining) with the following equation:
The CLint of microsomes was calculated using the formula: CLint (mic)=0.693/T1/2/mg microsome protein per mL. The slope was measured by the natural logarithm of the percentage of the residual compound and time, T1/2 was calculated according to the following formula.

[2] abbreviates: read-out: JAK1 JH2 Binding IC50.
[3] abbreviates: read-out: TYK2 JH2 Binding IC50.

T2 sequence (P29597 589-875 limits assumed): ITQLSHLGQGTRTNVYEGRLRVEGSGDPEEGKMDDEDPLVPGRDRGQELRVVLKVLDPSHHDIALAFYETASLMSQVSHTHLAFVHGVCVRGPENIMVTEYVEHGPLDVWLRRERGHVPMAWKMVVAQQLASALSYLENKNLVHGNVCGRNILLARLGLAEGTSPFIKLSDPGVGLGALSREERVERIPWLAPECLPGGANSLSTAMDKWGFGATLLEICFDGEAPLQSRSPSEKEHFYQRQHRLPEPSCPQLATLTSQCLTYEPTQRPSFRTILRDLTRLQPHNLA
T1 sequence (P23458 583-855 limits assumed): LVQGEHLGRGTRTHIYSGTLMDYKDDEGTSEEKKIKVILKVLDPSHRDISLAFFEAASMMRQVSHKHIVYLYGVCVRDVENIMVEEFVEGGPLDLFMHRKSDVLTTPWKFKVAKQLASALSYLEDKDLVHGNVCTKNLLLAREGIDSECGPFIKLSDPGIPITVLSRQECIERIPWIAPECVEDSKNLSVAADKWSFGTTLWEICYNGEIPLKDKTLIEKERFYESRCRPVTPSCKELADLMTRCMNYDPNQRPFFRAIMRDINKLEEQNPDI

A word on the IC50: it is the concentration needed to halve the response being measured. With `[2H]C([2H])([2H])NC(=O)c1cnc(NC(=O)C2CC2)cc1Nc1ncc2cnn(COCC[Si](C)(C)C)c2c1OC` [Example 1, 6-(Cyclopropanecarboxamido)-4-((7-methoxy-1-((2-(trimethylsilyl)ethoxy)methyl)-1H-pyrazolo[4,3-c]pyridin-6-yl)amino)-N-(methyl-d3)nicotinamide], the IC50 on JAK1-JH2 domain (JAK1 JH2 Binding IC50(nM)) was > 298 nM; on TYK2-JH2 domain (TYK2 JH2 Binding IC50(nM)) it was 9.31 nM. Moreover, the JAK1/TYK2 selectivity at TYK2-JH2 domain was >32.07.

For `[2H]C([2H])([2H])NC(=O)c1cnc(Nc2ccc(N3CCOCC3)cn2)cc1Nc1ccn2ncc(C#N)c2c1OC` [Example 6, 4-((3-Cyano-4-methoxypyrazolo[1,5-a]pyridin-5-yl)amino)-N-(methyl-d3)-6-((5-morpholinopyridin-2-yl)amino)nicotinamide], the IC50 at JAK1-JH2 domain (setting [2]) came to 0.703 nM. The JAK1/TYK2 selectivity at TYK2-JH2 domain stood at 4.48. Also, the IC50 at TYK2-JH2 domain (setting [3]) amounted to 0.157 nM. Further, in data set [1], the microsomal CLint at 1 µM was found to be 28.4 µL/min/mg and the half-life at 1 µM came out at 48.8 min.

With `[2H]C([2H])([2H])NC(=O)c1cnc(Nc2ccc(N3CCOCC3)cn2)nc1Nc1ccn2ncc(C#N)c2c1OC` [Example 7, 4-((3-Cyano-4-methoxypyrazolo[1,5-a]pyridin-5-yl)amino)-N-(methyl-d)-2-((5-morpholinopyridin-2-yl)amino)pyrimidine-5-carboxamide], the IC50 on JAK1-JH2 domain (setting [2]) was 10.7 nM; on TYK2-JH2 domain (setting [3]), 0.404 nM. The JAK1/TYK2 selectivity at TYK2-JH2 domain came to 26.60. The microsomal CLint at 1 µM in data set [1] was found to be 28.1 µL/min/mg. In addition, the half-life at 1 µM in data set [1] stood at 49.3 min.

As to `[2H]C([2H])([2H])NC(=O)c1cnc(NC(=O)[C@@H]2C[C@@H]2F)cc1Nc1ncc2cnn(CC(C)(F)F)c2c1OC` [Example 8, 4-((1-(2,2-Difluoropropyl)-7-methoxy-1H-pyrazolo[4,3-c]pyridin-6-yl)amino)-6-((1S,2S)-2-fluorocyclopropane-1-carboxamido)-N-(methyl-d3)nicotinamide], the figures for the IC50 on JAK1-JH2 domain (setting [2]) and at TYK2-JH2 domain (setting [3]) were 162 nM and 0.288 nM, respectively. For the same compound, at TYK2-JH2 domain, the JAK1/TYK2 selectivity is on record as 561.99.

On to `[2H]C([2H])([2H])NC(=O)c1cnc(NC(=O)[C@H]2C[C@H]2F)cc1Nc1ncc2cnn(CC(C)(F)F)c2c1OC` [Example 11, 4-((1-(2,2-Difluoropropyl)-7-methoxy-1H-pyrazolo[4,3-c]pyridin-6-yl)amino)-6-((1R,2R)-2-fluorocyclopropane-1-carboxamido)-N-(methyl-d3)nicotinamide], for which, at JAK1-JH2 domain (setting [2]), the IC50 is 73.8 nM. Moreover, the JAK1/TYK2 selectivity on TYK2-JH2 domain turned out to be 227.16. In addition, the IC50 at TYK2-JH2 domain (setting [3]) stood at 0.325 nM. In data set [1], the microsomal CLint at 1 µM turned out to be 2.86 µL/min/mg and the half-life at 1 µM stood at 485 min.

`[2H]C([2H])([2H])NC(=O)c1cnc(NC(=O)[C@@H]2C[C@@H]2F)cc1Nc1ncn2ncc(C(C)C(F)(F)F)c2c1OC` (stereo partly drawn) [Example 13, 6-((1S,2S)-2-fluorocyclopropane-1-carboxamido)-4-((4-methoxy-3-(1,1,1-trifluoropropan-2-yl)pyrazolo[1,5-c]pyrimidin-5-yl)amino)-N-(methyl-d3)nicotinamide]: the IC50 on JAK1-JH2 domain (setting [2]) is > 298 nM. For the same compound, the JAK1/TYK2 selectivity at TYK2-JH2 domain is listed as >175.38. The IC50 at TYK2-JH2 domain (setting [3]) is 1.7 nM. In addition, in data set [1], the microsomal CLint at 1 µM stood at 25.4 µL/min/mg and the half-life at 1 µM worked out at 54.5 min.

Regarding `COC(=O)c1cnc(NC(=O)C2CC2)cc1Nc1ncn2ncc(C#N)c2c1OC` [Example 19, Methyl 4-((3-cyano-4-methoxypyrazolo[1,5-c]pyrimidin-5-yl)amino)-6-(cyclopropanecarboxamido)nicotinate], the IC50 amounted to 22.1 nM on JAK1-JH2 domain (setting [2]) and 1.63 nM on TYK2-JH2 domain (setting [3]). The JAK1/TYK2 selectivity on TYK2-JH2 domain worked out at 13.51.

As for `[2H]C([2H])([2H])NC(=O)c1cnc(Nc2ccc(F)cn2)cc1Nc1ncc2cnn(CC(C)(F)F)c2c1OC` [Example 21, 4-((1-(2,2-Difluoropropyl)-7-methoxy-1H-pyrazolo[4,3-c]pyridin-6-yl)amino)-6-((5-fluoropyridin-2-yl)amino)-N-(methyl-d3)nicotinamide], the results for the IC50 at JAK1-JH2 domain (setting [2]) and on TYK2-JH2 domain (setting [3]) were 140 nM and 0.396 nM, respectively. Besides, the JAK1/TYK2 selectivity on TYK2-JH2 domain came to 353.07. In addition, the microsomal CLint at 1 µM in data set [1] came to 16.3 µL/min/mg. For the same compound, the half-life at 1 µM in data set [1] is 84.8 min.

For the compound `[2H]C([2H])([2H])NC(=O)c1cnc(NC(=O)C2CC2)cc1Nc1ncc2ncn(CC(F)(F)F)c2c1OC` [Example 25, 6-(Cyclopropanecarboxamido)-4-((7-methoxy-1-(2,2,2-trifluoroethyl)-1H-imidazo[4,5-c]pyridin-6-yl)amino)-N-(methyl-d3)nicotinamide], the IC50 on JAK1-JH2 domain (setting [2]) is 46.7 nM; on TYK2-JH2 domain (setting [3]), 0.174 nM. Also, the JAK1/TYK2 selectivity on TYK2-JH2 domain is 268.51.

Consider `COC(=O)c1cnc(NC(=O)C2CC2)cc1Nc1ncc2cnn(CC(C)(F)F)c2c1OC` [Example 26, Methyl 6-(cyclopropanecarboxamido)-4-((1-(2,2-difluoropropyl)-7-methoxy-1H-pyrazolo[4,3-c]pyridin-6-yl)amino)nicotinate], for which the IC50 is 115 nM at JAK1-JH2 domain (setting [2]) and 0.26 nM on TYK2-JH2 domain (setting [3]). In addition, at TYK2-JH2 domain, the JAK1/TYK2 selectivity is recorded as 443.32.

`[2H]C([2H])([2H])NC(=O)c1cnc(NC(=O)C2CC2)cc1Nc1ncn2ncc(C(O)C(F)(F)F)c2c1OC` (stereo not drawn) [Example 30, 6-(Cyclopropanecarboxamido)-4-((4-methoxy-3-(2,2,2-trifluoro-1-hydroxyethyl)pyrazolo[1,5-c]pyrimidin-5-yl)amino)-N-(methyl-d3)nicotinamide]: the IC50 was determined as 110 nM on JAK1-JH2 domain (setting [2]) and 0.134 nM at TYK2-JH2 domain (setting [3]). Moreover, the JAK1/TYK2 selectivity on TYK2-JH2 domain is on record as 822.4.

As for `[2H]C([2H])([2H])NC(=O)c1cnc(NC(=O)C2CC2)cc1Nc1ccc2ncn(CC(C)(F)F)c2c1OC` [Example 31, 6-(Cyclopropanecarboxamido)-4-((1-(2,2-difluoropropyl)-7-methoxy-1H-benzo[d]imidazol-6-yl)amino)-N-(methyl-d3)nicotinamide], the IC50 stood at 20.8 nM on JAK1-JH2 domain (setting [2]) and 0.3 nM at TYK2-JH2 domain (setting [3]). Also, the JAK1/TYK2 selectivity at TYK2-JH2 domain was found to be 69.3.

As for `[2H]C([2H])([2H])NC(=O)c1cnc(NC(=O)NCC)cc1Nc1ncc2cnn(CC(C)(F)F)c2c1OC` [Example 32, 4-((1-(2,2-Difluoropropyl)-7-methoxy-1H-pyrazolo[4,3-c]pyridin-6-yl)amino)-6-(3-ethylureido)-N-(methyl-d3)nicotinamide], the IC50 on JAK1-JH2 domain (setting [2]) was > 298 nM; at TYK2-JH2 domain (setting [3]), 1.7 nM. Moreover, at TYK2-JH2 domain, the JAK1/TYK2 selectivity is >175.4.

For the compound `[2H]C([2H])([2H])NC(=O)c1cnc(NC(=O)NC)cc1Nc1ncc2cnn(CC(C)(F)F)c2c1OC` [Example 33, 4-((1-(2,2-Difluoropropyl)-7-methoxy-1H-pyrazolo[4,3-c]pyridin-6-yl)amino)-N-(methyl-d3)-6-(3-methylureido)nicotinamide], the IC50 on JAK1-JH2 domain (setting [2]) was > 298 nM; on TYK2-JH2 domain (setting [3]), 2.14 nM. In addition, the JAK1/TYK2 selectivity at TYK2-JH2 domain is reported as >139.8.

For `CCC(=O)c1cnc(NC(=O)C2CC2)cc1Nc1ccc2cn[nH]c2c1OC` [Example 34, N-(4-((7-methoxy-1H-indazol-6-yl)amino)-5-propionylpyridin-2-yl)cyclopropanecarboxamide], on JAK1-JH2 domain (setting [2]), the IC50 was determined as 31.7 nM. In addition, the JAK1/TYK2 selectivity at TYK2-JH2 domain is on record as 8.0. Also, the IC50 on TYK2-JH2 domain (setting [3]) worked out at 3.94 nM. Also, in data set [1], the microsomal CLint at 1 µM was found to be 480 µL/min/mg and the half-life at 1 µM came out at 2.89 min.
